From patent US20130203718A1 (priority 2010, published 2013)

Molecular target: T1, hPRB and NCoR (Homo sapiens, UniProt P06401)
T1 construct: expressed in transfected cells; host or cells: HEK 293T
T1 sequence (P06401 1-933): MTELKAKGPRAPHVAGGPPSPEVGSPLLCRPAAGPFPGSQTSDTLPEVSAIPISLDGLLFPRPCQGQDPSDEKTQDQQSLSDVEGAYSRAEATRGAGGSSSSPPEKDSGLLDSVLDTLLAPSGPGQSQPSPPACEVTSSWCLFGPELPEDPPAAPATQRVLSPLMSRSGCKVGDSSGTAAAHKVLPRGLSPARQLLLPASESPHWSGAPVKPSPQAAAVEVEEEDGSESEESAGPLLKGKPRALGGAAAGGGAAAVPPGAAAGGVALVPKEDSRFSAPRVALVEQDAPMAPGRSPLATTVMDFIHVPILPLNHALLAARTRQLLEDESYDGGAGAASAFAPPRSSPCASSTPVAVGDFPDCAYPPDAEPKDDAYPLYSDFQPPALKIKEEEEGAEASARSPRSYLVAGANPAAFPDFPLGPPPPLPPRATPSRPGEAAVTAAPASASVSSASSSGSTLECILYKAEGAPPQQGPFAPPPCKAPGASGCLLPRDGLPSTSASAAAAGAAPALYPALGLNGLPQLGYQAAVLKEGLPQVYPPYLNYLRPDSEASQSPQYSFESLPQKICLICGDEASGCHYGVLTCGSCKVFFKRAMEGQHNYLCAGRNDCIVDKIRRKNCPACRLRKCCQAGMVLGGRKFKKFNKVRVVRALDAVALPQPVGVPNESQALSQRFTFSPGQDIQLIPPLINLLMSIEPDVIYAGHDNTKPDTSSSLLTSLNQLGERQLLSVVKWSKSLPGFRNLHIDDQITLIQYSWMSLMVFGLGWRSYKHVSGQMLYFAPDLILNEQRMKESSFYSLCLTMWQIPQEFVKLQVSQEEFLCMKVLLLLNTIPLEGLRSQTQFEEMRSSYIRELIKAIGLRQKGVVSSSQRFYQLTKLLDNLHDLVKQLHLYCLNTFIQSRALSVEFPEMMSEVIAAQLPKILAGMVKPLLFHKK
Assay: Mammalian two hybrid assay, recruitment of co-repressor NCoR by hPRB
Assay type: cell-based
Settings: HEK293T, FIGS. 12 and 14
Description: Mammalian Two Hybrid Assays.
To investigate whether hPR was able to recruit transcriptional corepressors upon APRn binding, two hybrid assays have been performed in HEK 293T cells. Cell transfection were carried out according to the protocol used for the PR transactivation assays, with 1 μg of pGAL4-SMRT or pGAL4-NcoR, 2.5 μg of the PR expression vector pV16-PR and 5 μg of the reporter pG5-luc. The plasmid pGAL4-SMRT and pGAL4-NcoR, provided by P. Balaguer, encode the fusion protein between the GAL4 DNA-binding domain (GAL4DBD) and the receptor interacting domain (RID) of the corepressor […], respectively. The expression vector pV16PR encodes the VP16 activation domain of herpes simplex virus fused to the entire hPR and pG5-luc, provided by P. Fuller, encodes the luciferase gene driven by a GAL4-responsive promoter. […] Cell transfection were carried out according to the PR transactivation assays, by using 2 μg of pM-TIF2/Nter-RID or […], 2 μg of the expression vector pV16PR and 5 μg of the reporter pG5luc. The plasmids pM-TIF2/Nter-RID encodes the fusion proteins between the GAL4 DBD and the 1-867 TIF2 sequence corresponding to the Nter and RID domains. The plasmids pMTIF2-Nter encodes the fusion proteins between the GAL4 DBD and the 1-623 TIF2 sequence corresponding to the Nter domain. After 16 h incubation, the transfected cells were washed with PBS containing 2.5 mM EDTA, trypsinized and replated in 24-well plates. […] Cells were lysed and the luciferase and activities were quantified by using a Mithras reader microplates (Berthold).
Both agonist- and antagonist-bound PR regulate gene transcription with the assistance of transcriptional co-repressors (NCoR, SMRT) or co-activators (namely, TIF-2). To characterize the mechanism by which APRn inactivate hPRB, the capacity of hPRB to recruit transcriptional co-regulators upon APRn binding has been evaluated. […]

Structure (SMILES) | recruitment of co-repressor NCoR by hPRB upon ligand binding
CC(=O)[C@H]1CC[C@H]2[C@@H]3CC=C4C[C@@H](F)CC[C@]4(C)[C@H]3CC[C@]12C [APR-16, 3β-Fluoropregn-5-en-20-one] | unable to recruit
C[C@]12CCC3C(CC=C4C[C@@H](F)CC[C@@H]43)C1CCC2=O (stereo partly drawn) [APR-47, 3β-Fluoro-19-nor-androst-5-en-17-one] | unable to recruit
CC#C[C@]1(O)CCC2C3CC[C@H]4CCCC[C@@H]4C3CC[C@@]21C (stereo partly drawn) [APR-54, 17α-(1-Propynyl)-19-nor-5-androstan-17β-ol] | unable to recruit
